Reference: patent US20240366567A1, “PHARMACEUTICAL COMBINATIONS COMPRISING A KRAS G12C INHIBITOR AND USES THEREOF FOR THE TREATMENT OF CANCERS” (NOVARTIS AG, priority 2021, published 2024)
Where two headings read alike, the source gives them in different places.

Tests used:
[1] = system: Ba/F3 cells expressing GFP-tagged KRASG12C H95Q; assay: Ba/F3 viability, CellTiter-Glo, 72 hours (Example 3); format: cell-based, murine
[2] = system: human KRAS G12C-mutated NSCLC PDX models; assay: NSCLC patient-derived xenograft (PDX) panel; format: in vivo, nude mice; conditions: Compound A alone, 100 mg/kg QD oral
Experimental: The antitumor efficacy of JDQ443±inhibitors of RAS-upstream or RAS-downstream signaling was evaluated in PDX panels of human KRAS G12C-mutated NSCLC and CRC.
Patient-derived xenograft (PDX) models of human NSCLC and CRC were established by direct implantation of patient NSCLC or CRC tumor tissue subcutaneously into nude mice. PDX models were maintained through in vivo serial passaging.
A cohort of mice was implanted subcutaneously with tumor fragments from each PDX model (typically passages 4-9). Ten NSCLC and nine CRC PDX models were used. Each model is named with a code, e.g. 30580-HX, 30581-HX etc, for identification and tracking purposes. Individual mice were assigned to treatment groups or control groups for dosing once their tumor volume reached 200-250 mm^3 (T=0, on the x-axis of the spider plots). One animal per PDX model was assigned to each treatment arm. Once enrolled into treatment arms, tumor volumes were measured twice weekly by caliper, and tumor volume was estimated in […] using the formula: Length×Width^2/2. The end of study per model was defined as minimum of 28 days treatment, or duration for untreated tumor to reach 1500 mm^3, or duration for 2 doublings of untreated tumor, whichever was slower.
The Raf inhibitor (LXH254 (naporafenib)) was formulated as a suspension. […]

[3] = system: patients; assay: KontRASt-01 (NCT04699188) phase Ib, safety and tolerability; format: in vivo, human
Experimental: The study is conducted to evaluate the antitumor efficacy, safety and tolerability of JDQ443 as a single agent and JDQ443 in combination with other agents.

[4] = KontRASt-01 (NCT04699188) clinical pharmacokinetics; format: in vivo, human
Experimental: FIG. 15: PK and target occupancy profiles of JDQ443 RD 200 mg BID. […] Error bars indicate standard deviation for PK profile at each timepoint. […]

[5] = system: KRAS G12C and CDKN2A-mutated LU99 xenograft; assay: LU99 xenograft, Compound A with ribociclib (Example 7); format: in vivo; conditions: LU99 xenograft in mice
[6] = Case 1, JDQ443 200 mg BID continuously, steady-state (cycle 1 day 14)

SMILES: C=CC(=O)N1CC2(CC(n3nc(-c4ccc5c(cnn5C)c4)c(-c4c(Cl)c(C)cc5[nH]ncc45)c3C)C2)C1 (single isomer, unassigned) [Compound A, 1-{6-[(4M)-4-(5-Chloro-6-methyl-1H-indazol-4-yl)-5-methyl-3-(1-methyl-1H-indazol-5-yl)-1H-pyrazol-1-yl]-2-azaspiro[3.3]heptan-2-yl}prop-2-en-1-one]
- inhibition of cellular viability ([1]; KRASG12C H95Q double mutant, 3-day proliferation assay): potently inhibiting
- GI50 ([1]; Mus musculus, BaF3, KRAS G12C H95Q, 72 hours, CellTiter-Glo, read-out: GI50 +/− standard deviation (STDEV)): 570 nM
- anti-tumor response [2]: no to moderate anti-tumor response in half of the models and a good anti-tumor response in the other half of the models
- Grade 4-5 TRAEs ([3]; 39 patients, all doses): no Grade 4-5 TRAEs
- patients with Grade 3 TRAEs ([3]; 39 patients, all doses): 4 pts
- tolerability ([3]; 39 patients, 200 mg QD, 400 mg QD, 200 mg BID or 300 mg BID): generally well tolerated
- ALT increased (adverse event), All grades ([3]; JDQ443 200 mg BID (n = 11)): 0 n
- ALT increased (adverse event), Grade ≥3 ([3]; JDQ443 200 mg BID (n = 11)): 0 n
- AST increased (adverse event), All grades ([3]; JDQ443 200 mg BID (n = 11)): 0 n
- AST increased (adverse event), Grade ≥3 ([3]; JDQ443 200 mg BID (n = 11)): 0 n
- Alopecia (adverse event), All grades ([3]; JDQ443 200 mg BID (n = 11)): 0 n
- Alopecia (adverse event), Grade ≥3 ([3]; JDQ443 200 mg BID (n = 11)): 0 n
- Arthralgia (adverse event), Grade ≥3 ([3]; JDQ443 200 mg BID (n = 11)): 0 n
- Decreased appetite (adverse event), Grade ≥3 ([3]; JDQ443 200 mg BID (n = 11)): 0 n
- Diarrhea (adverse event), Grade ≥3 ([3]; JDQ443 200 mg BID (n = 11)): 0 n
- Dizziness (adverse event), Grade ≥3 ([3]; JDQ443 200 mg BID (n = 11)): 0 n
- Dry mouth (adverse event), All grades ([3]; JDQ443 200 mg BID (n = 11)): 0 n
- Dry mouth (adverse event), Grade ≥3 ([3]; JDQ443 200 mg BID (n = 11)): 0 n
- Dry skin (adverse event), All grades ([3]; JDQ443 200 mg BID (n = 11)): 0 n
- Dry skin (adverse event), Grade ≥3 ([3]; JDQ443 200 mg BID (n = 11)): 0 n
- ECG QT prolonged (adverse event), All grades ([3]; JDQ443 200 mg BID (n = 11)): 0 n
- ECG QT prolonged (adverse event), Grade ≥3 ([3]; JDQ443 200 mg BID (n = 11)): 0 n
- Edema (adverse event), Grade ≥3 ([3]; JDQ443 200 mg BID (n = 11)): 0 n
- Fatigue (adverse event), Grade ≥3 ([3]; JDQ443 200 mg BID (n = 11)): 0 n
- Headache (adverse event), All grades ([3]; JDQ443 200 mg BID (n = 11)): 0 n
- Headache (adverse event), Grade ≥3 ([3]; JDQ443 200 mg BID (n = 11)): 0 n
- Lipase increased (adverse event), Grade ≥3 ([3]; JDQ443 200 mg BID (n = 11)): 0 n
- Musculoskeletal stiffness (adverse event), All grades ([3]; JDQ443 200 mg BID (n = 11)): 0 n
- Musculoskeletal stiffness (adverse event), Grade ≥3 ([3]; JDQ443 200 mg BID (n = 11)): 0 n
- Nausea (adverse event), Grade ≥3 ([3]; JDQ443 200 mg BID (n = 11)): 0 n
- Neuropathy peripheral (adverse event), All grades ([3]; JDQ443 200 mg BID (n = 11)): 0 n
- Neuropathy peripheral (adverse event), Grade ≥3 ([3]; JDQ443 200 mg BID (n = 11)): 0 n
- Neutropenia (adverse event), All grades ([3]; JDQ443 200 mg BID (n = 11)): 0 n
- Neutropenia (adverse event), Grade ≥3 ([3]; JDQ443 200 mg BID (n = 11)): 0 n
- Number of patients with at least one event, Grade ≥3 ([3]; JDQ443 200 mg BID (n = 11)): 0 n
- Photosensitivity reaction (adverse event), All grades ([3]; JDQ443 200 mg BID (n = 11)): 0 n
- Photosensitivity reaction (adverse event), Grade ≥3 ([3]; JDQ443 200 mg BID (n = 11)): 0 n
- Pruritus (adverse event), Grade ≥3 ([3]; JDQ443 200 mg BID (n = 11)): 0 n
- Rash (maculopapular) (adverse event), Grade ≥3 ([3]; JDQ443 200 mg BID (n = 11)): 0 n
- Rash (pustular) (adverse event), All grades ([3]; JDQ443 200 mg BID (n = 11)): 0 n
- Rash (pustular) (adverse event), Grade ≥3 ([3]; JDQ443 200 mg BID (n = 11)): 0 n
- Vomiting (adverse event), Grade ≥3 ([3]; JDQ443 200 mg BID (n = 11)): 0 n
- ALT increased (adverse event), Grade ≥3 ([3]; JDQ443 all patients (N = 39)): 0 n
- AST increased (adverse event), Grade ≥3 ([3]; JDQ443 all patients (N = 39)): 0 n
- Alopecia (adverse event), Grade ≥3 ([3]; JDQ443 all patients (N = 39)): 0 n
- Arthralgia (adverse event), Grade ≥3 ([3]; JDQ443 all patients (N = 39)): 0 n
- Decreased appetite (adverse event), Grade ≥3 ([3]; JDQ443 all patients (N = 39)): 0 n
- Diarrhea (adverse event), All grades ([3]; JDQ443 all patients (N = 39)): 5 n
- Diarrhea (adverse event), Grade ≥3 ([3]; JDQ443 all patients (N = 39)): 0 n
- Dizziness (adverse event), Grade ≥3 ([3]; JDQ443 all patients (N = 39)): 0 n
- Dry mouth (adverse event), Grade ≥3 ([3]; JDQ443 all patients (N = 39)): 0 n
- Dry skin (adverse event), Grade ≥3 ([3]; JDQ443 all patients (N = 39)): 0 n
- ECG QT prolonged (adverse event), Grade ≥3 ([3]; JDQ443 all patients (N = 39)): 0 n
- Edema (adverse event), Grade ≥3 ([3]; JDQ443 all patients (N = 39)): 0 n
- Headache (adverse event), Grade ≥3 ([3]; JDQ443 all patients (N = 39)): 0 n
- Lipase increased (adverse event), Grade ≥3 ([3]; JDQ443 all patients (N = 39)): 0 n
- Musculoskeletal stiffness (adverse event), Grade ≥3 ([3]; JDQ443 all patients (N = 39)): 0 n
- Nausea (adverse event), Grade ≥3 ([3]; JDQ443 all patients (N = 39)): 0 n
- Neuropathy peripheral (adverse event), Grade ≥3 ([3]; JDQ443 all patients (N = 39)): 0 n
- Number of patients with at least one event, Grade ≥3 ([3]; JDQ443 all patients (N = 39)): 5 n
- Pruritus (adverse event), Grade ≥3 ([3]; JDQ443 all patients (N = 39)): 0 n
- Rash (maculopapular) (adverse event), Grade ≥3 ([3]; JDQ443 all patients (N = 39)): 0 n
- Rash (pustular) (adverse event), Grade ≥3 ([3]; JDQ443 all patients (N = 39)): 0 n
- Vomiting (adverse event), All grades ([3]; JDQ443 all patients (N = 39)): 5 n
- Vomiting (adverse event), Grade ≥3 ([3]; JDQ443 all patients (N = 39)): 0 n
- dose limiting toxicity (DLT) ([3]; patient treated at 300 mg BID): one DLT (Grade 3 fatigue)
- treatment-related serious AE ([3]; patient treated at 300 mg BID): one treatment-related serious AE (Grade 3 photosensitivity reaction)
- accumulation at steady state ([4]; 200 mg BID, patients): No significant accumulation
- auto-induction ([4]; 200 mg BID, patients): no evidence of auto-induction
- steady-state area under the curve (AUCss) versus exposure required for maximum efficacy in less-sensitive KRAS G12C xenograft models ([4]; 200 mg BID, patients): more than threefold
- AUC0-24 h [4, 6]: 75930 ng·h/mL
- Cmax [4, 6]: 5920 ng/mL
- Tmax [4, 6]: 7.8 h
- Tmax ([4]; human, plasma, oral, 200 mg, 200 mg BID, following administration with food, read-out: median time to maximum plasma concentration (Tmax)): 3 to 4 h
- Tmax ([4]; human, plasma, oral, 200 mg, 200 mg BID, steady state, patients, read-out: Tmax, median (min-max)): 3.2 h
- half-life ([4]; human, plasma, oral, 200 mg BID, patients): ~7 h
- AUC(0-t) ([4]; human, plasma, oral, 200 mg BID, steady state, patients, read-out: AUC0-12, ss, GeoMean (CV %)): 49400 ng·h/mL
- Cmax ([4]; human, plasma, oral, 200 mg BID, steady state, patients, read-out: Cmax, ss, GeoMean (CV %)): 5950 ng/mL
- effect on tumor growth [5]: tumor regression for approximately two and a half weeks, followed by tumor relapse
